Counter-ions that a name gives are not always drawn. Active and inactive are the calls of the source. The calls are words filed in the database; no cut-off is given here.
How the values were obtained:
[1] = target: T1, DNA topoisomerase 1 (Homo sapiens) (UniProt P11387); assay: Inhibition of human recombinant topoisomerase 1-mediated relaxation of supercoiled pBR322 DNA at 20 uM after 30 mins using ethidium bromide staining by transillumination analysis
T1 sequence (whole entry): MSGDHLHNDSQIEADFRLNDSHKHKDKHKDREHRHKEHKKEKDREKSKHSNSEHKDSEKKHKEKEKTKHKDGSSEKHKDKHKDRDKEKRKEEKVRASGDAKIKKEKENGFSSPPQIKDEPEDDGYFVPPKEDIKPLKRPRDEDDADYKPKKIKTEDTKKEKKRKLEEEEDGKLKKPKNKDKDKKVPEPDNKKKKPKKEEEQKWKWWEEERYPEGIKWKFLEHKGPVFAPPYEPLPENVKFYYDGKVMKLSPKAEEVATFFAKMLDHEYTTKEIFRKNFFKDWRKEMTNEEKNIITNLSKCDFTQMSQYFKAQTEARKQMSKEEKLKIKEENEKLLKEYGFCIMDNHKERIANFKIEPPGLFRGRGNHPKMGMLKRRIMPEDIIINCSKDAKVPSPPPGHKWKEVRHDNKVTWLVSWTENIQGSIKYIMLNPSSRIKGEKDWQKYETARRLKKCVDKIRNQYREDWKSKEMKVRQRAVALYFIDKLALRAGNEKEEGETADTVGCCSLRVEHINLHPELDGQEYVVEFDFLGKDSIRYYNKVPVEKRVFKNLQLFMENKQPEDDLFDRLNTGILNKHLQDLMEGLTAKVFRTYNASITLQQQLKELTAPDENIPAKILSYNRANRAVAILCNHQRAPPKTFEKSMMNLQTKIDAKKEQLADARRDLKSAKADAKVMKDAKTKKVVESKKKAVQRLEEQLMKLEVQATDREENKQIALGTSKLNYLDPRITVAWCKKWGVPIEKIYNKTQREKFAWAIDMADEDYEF

[2] = target: DNA topoisomerase 2-alpha (Homo sapiens) (UniProt P11388); assay: Inhibition of human topoisomerase 2alpha-mediated relaxation of supercoiled pBR322 DNA at 10 uM after 30 mins using ethidium bromide staining by transillumination analysis
Sequence of DNA topoisomerase 2-alpha (Homo sapiens) (P11388 whole entry): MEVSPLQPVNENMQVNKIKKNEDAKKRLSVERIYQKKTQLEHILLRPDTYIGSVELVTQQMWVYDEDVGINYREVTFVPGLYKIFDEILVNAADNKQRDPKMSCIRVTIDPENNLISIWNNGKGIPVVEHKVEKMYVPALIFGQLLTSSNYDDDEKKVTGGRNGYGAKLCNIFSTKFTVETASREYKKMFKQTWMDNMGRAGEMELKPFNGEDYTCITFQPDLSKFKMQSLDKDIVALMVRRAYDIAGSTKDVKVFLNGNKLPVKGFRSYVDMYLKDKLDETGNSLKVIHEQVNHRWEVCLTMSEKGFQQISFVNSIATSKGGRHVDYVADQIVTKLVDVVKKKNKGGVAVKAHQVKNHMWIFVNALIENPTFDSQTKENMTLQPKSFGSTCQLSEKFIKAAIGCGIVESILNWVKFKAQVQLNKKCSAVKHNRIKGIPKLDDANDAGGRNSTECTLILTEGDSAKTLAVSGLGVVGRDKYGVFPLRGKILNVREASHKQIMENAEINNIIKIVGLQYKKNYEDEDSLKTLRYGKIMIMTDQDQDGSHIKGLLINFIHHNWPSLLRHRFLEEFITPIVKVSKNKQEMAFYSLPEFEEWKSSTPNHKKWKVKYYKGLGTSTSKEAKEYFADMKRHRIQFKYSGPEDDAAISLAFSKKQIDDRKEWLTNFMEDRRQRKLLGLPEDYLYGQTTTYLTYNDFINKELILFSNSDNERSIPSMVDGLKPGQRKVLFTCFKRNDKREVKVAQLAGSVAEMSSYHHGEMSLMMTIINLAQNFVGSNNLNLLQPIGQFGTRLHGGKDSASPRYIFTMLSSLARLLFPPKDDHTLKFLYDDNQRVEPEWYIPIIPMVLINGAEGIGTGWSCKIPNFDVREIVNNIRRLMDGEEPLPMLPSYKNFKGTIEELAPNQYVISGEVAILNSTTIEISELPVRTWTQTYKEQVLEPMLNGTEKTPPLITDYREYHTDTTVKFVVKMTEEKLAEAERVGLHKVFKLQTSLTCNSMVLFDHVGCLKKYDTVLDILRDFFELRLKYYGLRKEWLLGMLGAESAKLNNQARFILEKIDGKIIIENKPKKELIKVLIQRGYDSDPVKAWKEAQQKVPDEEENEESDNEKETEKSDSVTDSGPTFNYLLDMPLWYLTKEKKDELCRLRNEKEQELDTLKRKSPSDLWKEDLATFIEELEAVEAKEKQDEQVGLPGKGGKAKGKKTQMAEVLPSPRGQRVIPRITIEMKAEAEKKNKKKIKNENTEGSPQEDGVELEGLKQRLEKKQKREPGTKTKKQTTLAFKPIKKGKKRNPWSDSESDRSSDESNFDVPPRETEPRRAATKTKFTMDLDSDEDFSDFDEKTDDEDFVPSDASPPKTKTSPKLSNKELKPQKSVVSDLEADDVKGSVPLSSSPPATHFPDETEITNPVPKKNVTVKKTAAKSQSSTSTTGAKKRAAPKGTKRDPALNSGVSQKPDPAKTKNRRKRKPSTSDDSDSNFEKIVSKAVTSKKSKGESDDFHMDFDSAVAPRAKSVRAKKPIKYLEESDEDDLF

[3] = target: DNA topoisomerase 2-alpha (Homo sapiens) (UniProt P11388); assay: Inhibition of human topoisomerase 2alpha-mediated relaxation of supercoiled pBR322 DNA at 20 uM after 30 mins using ethidium bromide staining by transillumination analysis
[4] = target: DNA topoisomerase 2-alpha (Homo sapiens) (UniProt P11388); assay: Inhibition of human topoisomerase 2alpha-mediated relaxation of supercoiled pBR322 DNA at 100 uM after 30 mins using ethidium bromide staining by transillumination analysis
HeLa = assay: Cytotoxicity against human HeLa cells after 2 days; conditions: 48 h
HCT-116 = assay: Cytotoxicity against human HCT116 cells after 2 days; format: functional, cell-based; conditions: HCT-116, 48 h
DU-145 = assay: Cytotoxicity against human DU145 cells after 2 days; format: functional, cell-based; conditions: DU-145, 48 h
MDA-MB-231 = assay: Cytotoxicity against human MDA-MB-231 cells after 2 days; conditions: MDA-MB-231, 48 h
HL-60 = assay: Cytotoxicity against human HL60 cells after 2 days; format: functional, cell-based; conditions: HL-60, 48 h
[5] = target: DNA topoisomerase 2-alpha (Homo sapiens) (UniProt P11388); assay: Inhibition of human topoisomerase 2alpha-mediated relaxation of pUC18 DNA at 400 uM after 30 mins by malachite green ATPase assay in presence of 1 to 4 mM of ATP
[6] = target: DNA topoisomerase 2-alpha (Homo sapiens) (UniProt P11388); assay: Inhibition of human topoisomerase 2alpha-mediated ATP hydrolysis at 400 uM after 30 mins by malachite green ATPase assay

Q: For `CCCNCC(O)COc1cc(O)c2c(=O)c3ccccc3oc2c1` (centres undefined), which inhibition [1] is on record?
A: 0%

Q: And the inhibition [2]?
A: 41.2%

Q: What about the inhibition [3] of the same compound?
A: 70%

Q: And the inhibition [4]?
A: 100%

Q: What about the IC50 (HeLa) of the same compound?
A: 11.6 µM

Q: And the IC50 (HCT-116)?
A: 23.7 µM

Q: And the IC50 (DU-145)?
A: 0.76 µM

Q: And the IC50 (MDA-MB-231)?
A: 4.11 µM

Q: And the IC50 (HL-60)?
A: 4.15 µM

Q: And the inhibition [5]?
A: inactive

Q: And the inhibition [6]?
A: 28.5%

Q: For `O=c1c2ccccc2oc2cc(OCC(O)CSCCO)cc(O)c12` (centres undefined), which inhibition [1] is on record?
A: 0%

Q: And the inhibition [2]?
A: 26.3%

Q: And the inhibition [3]?
A: 49.1%

Q: What about the inhibition [4] of the same compound?
A: 63.8%

Q: And the IC50 (HeLa)?
A: 9.15 µM

Q: What about the IC50 (HCT-116) of the same compound?
A: 23.9 µM

Q: What about the IC50 (DU-145) of the same compound?
A: 3.47 µM

Q: What about the IC50 (MDA-MB-231) of the same compound?
A: 5.13 µM

Q: And the IC50 (HL-60)?
A: 19.9 µM

Q: Which results are given for `O=c1c2ccccc2oc2cc(OCC(O)CNCCO)cc(O)c12` (centres undefined)?
A: inhibition [1]: 1.08%; inhibition [2]: 35.5%; inhibition [3]: 70.3%; inhibition [4]: 100%; IC50 (HeLa): 8.43 µM; IC50 (HCT-116): 20 µM; IC50 (DU-145): 4.03 µM; IC50 (MDA-MB-231): 3.55 µM; IC50 (HL-60): 9.87 µM

Q: `O=c1c2ccccc2oc2cc(OCC(O)CNCCCO)cc(O)c12` (centres undefined) was tested. Which inhibition [1] did it give?
A: 3.45%

Q: What about the inhibition [2] of the same compound?
A: 38.7%

Q: What about the inhibition [3] of the same compound?
A: 62.8%

Q: And the inhibition [4]?
A: 100%

Q: And the IC50 (HeLa)?
A: 19.2 µM

Q: What about the IC50 (HCT-116) of the same compound?
A: 31.3 µM

Q: And the IC50 (DU-145)?
A: 1.6 µM

Q: What about the IC50 (MDA-MB-231) of the same compound?
A: 6.97 µM

Q: And the IC50 (HL-60)?
A: 8.87 µM

Q: For `CO[C@@H]1[C@@H](OC(N)=O)[C@@H](O)[C@H](Oc2ccc3c(O)c(NC(=O)c4ccc(O)c(CC=C(C)C)c4)c(=O)oc3c2C)OC1(C)C`, which inhibition [6] is on record?
A: 60.4%

Q: Which IC50 (HCT-116) does the source give for `CC[C@@]1(O)C(=O)OCc2c1cc1n(c2=O)Cc2cc3ccccc3nc2-1` [CAMPTOTHECIN] here?
A: 3.97 µM

Q: And the IC50 (DU-145)?
A: 0.31 µM

Q: And the IC50 (MDA-MB-231)?
A: 0.97 µM

Q: Which results are given for `O=c1c2ccccc2oc2cc(OCC(O)CSCCCO)cc(O)c12` (centres undefined)?
A: inhibition [1]: 0%; inhibition [2]: 17.5%; inhibition [3]: 26.1%; inhibition [4]: 68%; IC50 (HeLa): 12.3 µM; IC50 (HCT-116): > 100 µM; IC50 (DU-145): 40.9 µM; IC50 (MDA-MB-231): 8.4 µM; IC50 (HL-60): 27.8 µM

Q: Which results are given for `O=c1c2ccccc2oc2cc(OCC(O)CN(CCO)CCO)cc(O)c12` (centres undefined)?
A: inhibition [1]: 0%; inhibition [2]: 17.4%; inhibition [3]: 45.8%; inhibition [4]: 100%; IC50 (HeLa): 15.2 µM; IC50 (HCT-116): 56.7 µM; IC50 (DU-145): 1.59 µM; IC50 (MDA-MB-231): 14.9 µM; IC50 (HL-60): 15.9 µM

Q: Which IC50 (HCT-116) does the source give for `COc1cccc2c1C(=O)c1c(O)c3c(c(O)c1C2=O)C[C@@](O)(C(=O)CO)C[C@@H]3O[C@H]1C[C@H](N)[C@H](O)[C@H](C)O1` [DOXORUBICIN HYDROCHLORIDE] here?
A: 6.81 µM

Q: And the IC50 (DU-145)?
A: 2.47 µM

Q: What about the IC50 (HL-60) of the same compound?
A: 0.32 µM

Q: Which results are given for `COc1cc([C@@H]2c3cc4c(cc3[C@@H](O[C@@H]3O[C@@H]5CO[C@@H](C)O[C@H]5[C@H](O)[C@H]3O)[C@H]3COC(=O)[C@H]23)OCO4)cc(OC)c1O` [ETOPOSIDE]?
A: inhibition [2]: 26%; inhibition [4]: 77.1%; IC50 (HeLa): 2.36 µM; IC50 (HCT-116): 9.5 µM; IC50 (DU-145): 2.19 µM; IC50 (MDA-MB-231): 1.23 µM; IC50 (HL-60): 1.28 µM

Q: For `O=c1c2ccccc2oc2cc(OCC(O)COCCO)cc(O)c12` (centres undefined), which inhibition [1] is on record?
A: 0%

Q: And the inhibition [2]?
A: 23.4%

Q: What about the inhibition [3] of the same compound?
A: 43.7%

Q: And the inhibition [4]?
A: 89.2%

Q: What about the IC50 (HeLa) of the same compound?
A: 15.4 µM

Q: What about the IC50 (HCT-116) of the same compound?
A: 46.7 µM

Q: What about the IC50 (DU-145) of the same compound?
A: 15.6 µM

Q: What about the IC50 (MDA-MB-231) of the same compound?
A: 10.4 µM

Q: And the IC50 (HL-60)?
A: 16.6 µM
